# Key:
# WNT5A = assay: Real-time PCR mRNA expression, Wnt/β-catenin signaling; assay type: cell-based, human; settings: 3D spheroid culture, 20 μg/ml, 48 hours, relative to β-actin, vs non-treated group (control)
# Method: (§1) Next, for 3D spheroid culture, human hair follicle dermal papilla cells were cultured in a plate (round-bottom ultra-low attachment microplate, Corning, NY, USA) containing the stem cell medium supplemented with 5% fetal bovine serum at 37° C. under a 5% CO2 atmosphere.
# (§2) Next, in order to confirm the luciferase activity results, mRNA analysis was performed on β-catenin, WNT5A, and LEF1, which are involved in the Wnt/β-catenin signaling. First, a 3D spheroid culture of human hair follicle dermal papilla cells was treated with Example 1 (20 μg/ml) for 48 hours, followed by RNA extraction with a TRIzol solution (Invitrogen, Thermo Fisher Scientific). From 2 μg of the RNA extract, cDNA was synthesized in the presence of M-MLV reverse transcriptase. The synthesized cDNA was mixed with HOT FIREPol EvaGreen qPCR Mix Plus solution (Solis BioDyne, Tartu, Estonia) and each of primer sets for the Wnt/β-catenin target genes β-catenin, WNT5A, and LEF1 and subjected to Step OnePlus Real-Time PCR (Applied Biosystems; Thermo Fisher Scientific). Relative to the expression of β-actin housekeeping gene, an expression level of each gene was derived. Analysis results of mRNA expressions are depicted in FIGS. 5B to 5D.
# β-catenin = assay: as above; assay type: cell-based, human; settings: 3D spheroid culture, 20 μg/ml, 48 hours, relative to β-actin, vs non-treated group (control)
# Method: as §1, §2
# LEF1 = assay: as above; assay type: cell-based, human; settings: 3D spheroid culture, 20 μg/ml, 48 hours, relative to β-actin, vs non-treated group (control)
# Method: as §1, §2
# FGF7 = assay: Real-time PCR mRNA expression, dermal papilla signature gene; assay type: cell-based, human; settings: 3D spheroid culture, vs non-treated control
# Method: as §1, §2
# (§3) After being applied to the 3D spheroid culture of human hair follicle dermal papilla cells in Experimental Example 1, the Examples of the present disclosure were examined for the effect of preventing hair loss and promoting hair growth by monitoring mRNA expression levels of ALPL, VCAN, BMP2, and FGF7.
# (§4) The mRNA expression analysis of ALPL, VCAN, BMP2, and FGF7 was carried out in the same manner as for β-catenin, WNT5A, and LEF1 in Experimental Example 3-2, with the exception of using primer sets for ALPL, VCAN, FGF7, and BMP2 instead of those for β-catenin, WNT5A, and LEF1. The mRNA expression analysis data are depicted in FIGS. 6 and 7.
# BMP2 = assay: as above; assay type: cell-based, human; settings: 3D spheroid culture, vs non-treated control
# Method: as §1, §2, §3, §4
# VCAN = assay: as above; assay type: cell-based, human; settings: 3D spheroid culture, vs non-treated control
# Method: as §1, §2, §3, §4
# ALPL = assay: as above; assay type: cell-based, human; settings: 3D spheroid culture, vs non-treated control
# Method: as §1, §2, §3, §4
# [1] = system: human hair follicle dermal papilla cells; assay: Formation and size of 3D spheroids (phase-contrast microscope); assay type: cell-based; settings: 3D culture, 48 hours
# Method: as §1
# Referring to the document [Higgins, C. A. et al., Exp Dermatol., 19(6), 546-548, 2010; Higgins, C. A. et al., Proc Natl Acad Sci USA., 110(49), 19679-19688, 2013; Kang, B. M. et al., J Invest Dermatol., 132(1), 237-239, 2012], a 3D spheroid culture of human hair follicle dermal papilla cells is reported to induce better formation and growth of hair follicles, compared to a 2D culture of human hair follicle dermal papilla cells. In addition, the document [Whiting, D. A., J Am Acad Dermatol., 45(3 Suppl), S81-S86, 2001; de Lacharriere, O. et al., Arch Dermatol., 137(5), 641-646, 2001; Jahoda, C. A., Exp Dermatol., 7(5), 235-248, 1998] reports that a decrease in the size of dermal papilla may cause follicle miniaturization in patients with hair loss. The Examples of the present disclosure were examined for effects of preventing hair loss and promoting hair growth by monitoring the formation and size of 3D spheroids after application to the 3D spheroid culture of Experimental Example 1.
# First, the formation and size change of 3D spheroids of human hair follicle dermal papilla cells were observed. In this regard, the 3D spheroid culture of cells in Experimental Example 1 was seeded at a density of 5×10^4 cells/well into 96-well plates (96-well round-bottom ultra-low attachment microplates) and incubated for 48 hours with predetermined concentrations of Examples 1 and 2 and Comparative Example 1 (ginsenoside Rg2). Thereafter, the human dermal papilla cells were observed under a phase-contrast microscope to see whether the cells formed 3D spheroids and to measure sizes of the spheroids.
# [2] = system: human hair follicle dermal papilla cells; assay: WST-1 cell viability assay; assay type: cell-based; settings: 48 hours, various concentrations, vs non-treated group
# Method: With reference to the documents [Topouzi, H. et al., Exp Dermatol., 26(6), 491-496, 2017; Higgins, C. A. et al., Proc Natl Acad Sci USA., 110(49), 19679-19688, 2013; Higgins, C. A. et al., Exp Dermatol., 19(6), 546-548, 2010], human hair follicle dermal papilla (HDP) cells were incubated in a general 2D monolayer culture manner and in a 3D spheroid culture manner as in the actual human follicle structure.
# First, for 2D monolayer culture, human hair follicle dermal papilla cells were cultured in a mesenchymal stem cell medium (MSCM) (Innoprot, Bizakaia, Spain) supplemented with 5% fetal bovine serum (FBS, Thermo Fisher Scientific, Inc., Waltham, MA, USA) in an incubator maintaining the condition of 37° C. and 5% CO2. […]
# First, the human hair follicle dermal papilla cells cultured in a 2D or 3D manner in Experimental Example 1 were seeded at a density of 1×10^4 cells/well into 96-well plates (96-well round-bottom ultra-low attachment microplates) and incubated at 37° C. for 24 hours in a 5% CO2 atmosphere. […] Then, 10 μl of the WST-1 solution was added to the culture and incubated for 30 min before reading absorbance at 450 nm on an iMark microplate reader (Bio-Rad Laboratories, Hercules, CA, USA). […]
# TCF/LEF = TCF/LEF luciferase reporter assay (TOPFlash/FOPFlash), Wnt/β-catenin signaling; assay type: cell-based; settings: HEK293 cells, 20 μg/ml, 24 hours, vs non-treated group (control)
# Method: HEK293 cells were cultured in DMEM (Dulbecco's Modified Eagle's Medium, Thermo Fisher Scientific, Inc.) supplemented with 10% fetal bovine serum, penicillin (50 U/ml), and streptomycin (50 U/ml) under the condition of 37° C. and 5% CO2.
# Whether the Wnt/β-catenin signaling is activated or not was determined using a TCF/LEF luciferase reporter plasmid (TOPFlash, Merck-Millipore, Darmstadt, Germany) designed to specifically react with the transcription factor TCF/LEF activated by β-catenin, and a reporter plasmid having a mutation caused in the promoter thereof (FOPFlash, Merck-Millipore, Darmstadt, Germany).
# First, the TCF/LEF luciferase reporter plasmid (TOPFlash (TCF/LEF-wt) or FOPFlash (TCF/LEF-mut)) and a β-galactosidase plasmid were transfected into the HEK293 cells cultured in Experimental Example 1 with the aid of Lipofectamine 3000 (Invitrogen, Thermo Fisher Scientific, Inc.). After being incubated with 20 μg/ml of Example 1 for 24 hours, the transfected cells were lysed with a passive lysis buffer (Promega, Madison, WI, USA). The cell lysate thus formed was added with D-luciferin and measured for luciferase activity by Glomax 96 Microplate Luminometer (Turner Biosystem, Sunnyvale, CA, USA). β-Galactosidase activity was measured with the aid of Luminescent β-galactosidase Detection Kit II (Clontech Laboratories Inc., USA). […]
compound,measurement,setting,value
"CC(C)=CC/C=C(/C)[C@H]1CC[C@]2(C)[C@@H]1[C@H](O)C[C@@H]1[C@@]3(C)CC[C@H](O)C(C)(C)[C@@H]3[C@@H](O[C@@H]3O[C@H](CO)[C@@H](O)[C@H](O)[C@H]3O[C@@H]3O[C@@H](C)[C@H](O)[C@@H](O)[C@H]3O)C[C@]12C [Example 1, ginsenoside Rg4]",mRNA expression level of WNT5A,WNT5A,two folds or more
same,mRNA expression level of β-catenin,β-catenin,two folds or more
same,mRNA expression level of LEF1,LEF1,two folds or more
same,mRNA expression level of FGF7,FGF7,increased
same,mRNA expression level of BMP2,BMP2,increased
same,mRNA expression level of VCAN,VCAN,increased
same,mRNA expression level of ALPL,ALPL,increased
same,"number of 3D spheroids, increase compared to ginsenoside Rg2 of Comparative Example 1",[1]; FIG. 3C,two to three folds
same,"size of 3D spheroids, increase compared to ginsenoside Rg2 of Comparative Example 1",[1]; FIG. 3C,two to three folds
same,number of 3D spheroids,[1]; vs non-treated group,increase the number and size of 3D spheroids in a concentration-dependent manner
same,size of 3D spheroids,[1]; vs non-treated group,increase the number and size of 3D spheroids in a concentration-dependent manner
same,cell viability,[2]; 2D (monolayer) cultured cells,the same cell viability
same,cell viability,[2]; 3D (spheroid) cultured cells,the same cell viability
same,activation of TCF/LEF (luciferase activity),TCF/LEF,two folds or more

# Reference: patent publication US12414976B2, “Pharmaceutical composition for preventing hair loss or promoting hair growth, comprising ginsenoside RG4 or mixture (Rgx 365) of ginsenosides Rg2, Rg4, Rg6, and Rh1 as active ingredient” (AREZ CO., LTD., priority 2019, dated 2025)
